Measured values: publication PMC4767141, “Discovery of Potent, Orally Bioavailable, Small-Molecule Inhibitors of WNT Signaling from a Cell-Based Pathway Screen” (Journal of Medicinal Chemistry, 2015)

Legend:
TIE2 = biological target: T1, TIE2 (Homo sapiens, UniProt Q02763); assay: Millipore kinase panel; format: biochemical; conditions: read-out: % Control
T1 construct: purchased Millipore KinaseProfiler (kinases); Cerep (receptors and ion channels)

ARK5 = biological target: T2, ARK5 (Homo sapiens, UniProt O60285); assay: Millipore kinase panel; format: biochemical; conditions: read-out: % Control
T2 construct: purchased Millipore KinaseProfiler (kinases); Cerep (receptors and ion channels)

RSK3 = biological target: T3, RSK3 (Homo sapiens, UniProt Q15349); assay: Millipore kinase panel; format: biochemical; conditions: read-out: % Control
T3 construct: purchased Millipore KinaseProfiler (kinases); Cerep (receptors and ion channels)

MTOR = biological target: T4, MTOR (Homo sapiens, UniProt P42345); assay: Millipore kinase panel; format: biochemical; conditions: read-out: % Control
T4 construct: purchased Millipore KinaseProfiler (kinases); Cerep (receptors and ion channels)

GRK5 = biological target: T5, GRK5 (Homo sapiens, UniProt P34947); assay: Millipore kinase panel; format: biochemical; conditions: read-out: % Control
T5 construct: purchased Millipore KinaseProfiler (kinases); Cerep (receptors and ion channels)

JAK3 = biological target: T6, JAK3 (Homo sapiens, UniProt P52333); assay: Millipore kinase panel; format: biochemical; conditions: read-out: % Control
T6 construct: purchased Millipore KinaseProfiler (kinases); Cerep (receptors and ion channels)

BRSK1 = biological target: T7, BRSK1 (Homo sapiens, UniProt Q8TDC3); assay: Millipore kinase panel; format: biochemical; conditions: read-out: % Control
T7 construct: purchased Millipore KinaseProfiler (kinases); Cerep (receptors and ion channels)

SGK = biological target: T8, SGK (Homo sapiens, UniProt O00141); assay: Millipore kinase panel; format: biochemical; conditions: read-out: % Control
T8 construct: purchased Millipore KinaseProfiler (kinases); Cerep (receptors and ion channels)

SGK2 = biological target: T9, SGK2 (Homo sapiens, UniProt Q9HBY8); assay: Millipore kinase panel; format: biochemical; conditions: read-out: % Control
T9 construct: purchased Millipore KinaseProfiler (kinases); Cerep (receptors and ion channels)

dopamine transporter (h) = biological target: T10, dopamine transporter (h) (Homo sapiens, UniProt Q01959); assay: CEREP binding panel; conditions: antagonist radioligand, read-out: % Inhibition of Control Specific Binding
T10 construct: purchased Millipore KinaseProfiler (kinases); Cerep (receptors and ion channels)

ALK = biological target: T11, ALK (Homo sapiens, UniProt Q9UM73); assay: Millipore kinase panel; format: biochemical; conditions: read-out: % Control
T11 construct: purchased Millipore KinaseProfiler (kinases); Cerep (receptors and ion channels)

M2 (h) = biological target: T12, M2 (h) (Homo sapiens, UniProt P08172); assay: CEREP binding panel; conditions: antagonist radioligand, read-out: % Inhibition of Control Specific Binding
T12 construct: purchased Millipore KinaseProfiler (kinases); Cerep (receptors and ion channels)

D2S (h) = biological target: T13, D2S (h) (Homo sapiens, UniProt P14416); assay: CEREP binding panel; conditions: antagonist radioligand, read-out: % Inhibition of Control Specific Binding
T13 construct: purchased Millipore KinaseProfiler (kinases); Cerep (receptors and ion channels)

MSK2 = biological target: T14, MSK2 (Homo sapiens, UniProt O75676); assay: Millipore kinase panel; format: biochemical; conditions: read-out: % Control
T14 construct: purchased Millipore KinaseProfiler (kinases); Cerep (receptors and ion channels)

WNK3 = biological target: T15, WNK3 (Homo sapiens, UniProt Q9BYP7); assay: Millipore kinase panel; format: biochemical; conditions: read-out: % Control
T15 construct: purchased Millipore KinaseProfiler (kinases); Cerep (receptors and ion channels)

IR, ACTIVATED = biological target: T16, IR, ACTIVATED (Homo sapiens, UniProt P06213); assay: Millipore kinase panel; format: biochemical; conditions: read-out: % Control
T16 construct: purchased Millipore KinaseProfiler (kinases); Cerep (receptors and ion channels)

SAPK2B = biological target: T17, SAPK2B (Homo sapiens, UniProt Q15759); assay: Millipore kinase panel; format: biochemical; conditions: read-out: % Control
T17 construct: purchased Millipore KinaseProfiler (kinases); Cerep (receptors and ion channels)

DCAMKL2 = biological target: T18, DCAMKL2 (Homo sapiens, UniProt Q8N568); assay: Millipore kinase panel; format: biochemical; conditions: read-out: % Control
T18 construct: purchased Millipore KinaseProfiler (kinases); Cerep (receptors and ion channels)

STK33 = biological target: T19, STK33 (Homo sapiens, UniProt Q9BYT3); assay: Millipore kinase panel; format: biochemical; conditions: read-out: % Control
T19 construct: purchased Millipore KinaseProfiler (kinases); Cerep (receptors and ion channels)

IKKALPHA = biological target: T20, IKKALPHA (Homo sapiens, UniProt O15111); assay: Millipore kinase panel; format: biochemical; conditions: read-out: % Control
T20 construct: purchased Millipore KinaseProfiler (kinases); Cerep (receptors and ion channels)

EGFR = biological target: T21, EGFR (Homo sapiens, UniProt P00533); assay: Millipore kinase panel; format: biochemical; conditions: read-out: % Control
T21 construct: purchased Millipore KinaseProfiler (kinases); Cerep (receptors and ion channels)

CK2 = biological target: T22, CK2 (Homo sapiens, UniProt P68400); assay: Millipore kinase panel; format: biochemical; conditions: read-out: % Control
T22 construct: purchased Millipore KinaseProfiler (kinases); Cerep (receptors and ion channels)

MELK = biological target: T23, MELK (Homo sapiens, UniProt Q14680); assay: Millipore kinase panel; format: biochemical; conditions: read-out: % Control
T23 construct: purchased Millipore KinaseProfiler (kinases); Cerep (receptors and ion channels)

GABA (non-selective) = assay: CEREP binding panel; conditions: 10 μM, agonist radioligand
CAMKIIBETA = biological target: T24, CAMKIIBETA (Homo sapiens, UniProt Q13554); assay: Millipore kinase panel; format: biochemical; conditions: read-out: % Control
T24 construct: purchased Millipore KinaseProfiler (kinases); Cerep (receptors and ion channels)

5-HT transporter (h) = biological target: T25, 5-HT transporter (h) (Homo sapiens, UniProt P31645); assay: CEREP binding panel; conditions: antagonist radioligand, read-out: % Inhibition of Control Specific Binding
T25 construct: purchased Millipore KinaseProfiler (kinases); Cerep (receptors and ion channels)

PAK5 = biological target: T26, PAK5 (Homo sapiens, UniProt Q9P286); assay: Millipore kinase panel; format: biochemical; conditions: read-out: % Control
T26 construct: purchased Millipore KinaseProfiler (kinases); Cerep (receptors and ion channels)

PAK6 = biological target: T27, PAK6 (Homo sapiens, UniProt Q9NQU5); assay: Millipore kinase panel; format: biochemical; conditions: read-out: % Control
T27 construct: purchased Millipore KinaseProfiler (kinases); Cerep (receptors and ion channels)

PIM-2 = biological target: T28, PIM-2 (Homo sapiens, UniProt Q9P1W9); assay: Millipore kinase panel; format: biochemical; conditions: read-out: % Control
T28 construct: purchased Millipore KinaseProfiler (kinases); Cerep (receptors and ion channels)

ITK = biological target: T29, ITK (Homo sapiens, UniProt Q08881); assay: Millipore kinase panel; format: biochemical; conditions: read-out: % Control
T29 construct: purchased Millipore KinaseProfiler (kinases); Cerep (receptors and ion channels)

FYN = biological target: T30, FYN (Homo sapiens, UniProt P06241); assay: Millipore kinase panel; format: biochemical; conditions: read-out: % Control
T30 construct: purchased Millipore KinaseProfiler (kinases); Cerep (receptors and ion channels)

EPHA5 = biological target: T31, EPHA5 (Homo sapiens, UniProt P54756); assay: Millipore kinase panel; format: biochemical; conditions: read-out: % Control
T31 construct: purchased Millipore KinaseProfiler (kinases); Cerep (receptors and ion channels)

EEF-2K = biological target: T32, EEF-2K (Homo sapiens, UniProt O00418); assay: Millipore kinase panel; format: biochemical; conditions: read-out: % Control
T32 construct: purchased Millipore KinaseProfiler (kinases); Cerep (receptors and ion channels)

PKCMU = biological target: T33, PKCMU (Homo sapiens, UniProt Q15139); assay: Millipore kinase panel; format: biochemical; conditions: read-out: % Control
T33 construct: purchased Millipore KinaseProfiler (kinases); Cerep (receptors and ion channels)

MKK7BETA = biological target: T34, MKK7BETA (Homo sapiens, UniProt O14733); assay: Millipore kinase panel; format: biochemical; conditions: read-out: % Control
T34 construct: purchased Millipore KinaseProfiler (kinases); Cerep (receptors and ion channels)

PKD2 = biological target: T35, PKD2 (Homo sapiens, UniProt Q9BZL6); assay: Millipore kinase panel; format: biochemical; conditions: read-out: % Control
T35 construct: purchased Millipore KinaseProfiler (kinases); Cerep (receptors and ion channels)

TBK1 = biological target: T36, TBK1 (Homo sapiens, UniProt Q9UHD2); assay: Millipore kinase panel; format: biochemical; conditions: read-out: % Control
T36 construct: purchased Millipore KinaseProfiler (kinases); Cerep (receptors and ion channels)

FLT4 = biological target: T37, FLT4 (Homo sapiens, UniProt P35916); assay: Millipore kinase panel; format: biochemical; conditions: read-out: % Control
T37 construct: purchased Millipore KinaseProfiler (kinases); Cerep (receptors and ion channels)

TAK1 = biological target: T38, TAK1 (Homo sapiens, UniProt O43318); assay: Millipore kinase panel; format: biochemical; conditions: read-out: % Control
T38 construct: purchased Millipore KinaseProfiler (kinases); Cerep (receptors and ion channels)

5-HT1B = biological target: T39, 5-HT1B (Rattus norvegicus, UniProt P28564); assay: CEREP binding panel; conditions: antagonist radioligand, read-out: % Inhibition of Control Specific Binding
T39 construct: purchased Millipore KinaseProfiler (kinases); Cerep (receptors and ion channels)

MC4 (h) = biological target: T40, MC4 (h) (Homo sapiens, UniProt P32245); assay: CEREP binding panel; conditions: agonist radioligand, read-out: % Inhibition of Control Specific Binding
T40 construct: purchased Millipore KinaseProfiler (kinases); Cerep (receptors and ion channels)

ALK4 = biological target: T41, ALK4 (Homo sapiens, UniProt P36896); assay: Millipore kinase panel; format: biochemical; conditions: read-out: % Control
T41 construct: purchased Millipore KinaseProfiler (kinases); Cerep (receptors and ion channels)

PRAK = biological target: T42, PRAK (Homo sapiens, UniProt Q8IW41); assay: Millipore kinase panel; format: biochemical; conditions: read-out: % Control
T42 construct: purchased Millipore KinaseProfiler (kinases); Cerep (receptors and ion channels)

β2 (h) = biological target: T43, β2 (h) (Homo sapiens, UniProt P07550); assay: CEREP binding panel; conditions: agonist radioligand, read-out: % Inhibition of Control Specific Binding
T43 construct: purchased Millipore KinaseProfiler (kinases); Cerep (receptors and ion channels)

T24 sequence (Q13554 whole entry): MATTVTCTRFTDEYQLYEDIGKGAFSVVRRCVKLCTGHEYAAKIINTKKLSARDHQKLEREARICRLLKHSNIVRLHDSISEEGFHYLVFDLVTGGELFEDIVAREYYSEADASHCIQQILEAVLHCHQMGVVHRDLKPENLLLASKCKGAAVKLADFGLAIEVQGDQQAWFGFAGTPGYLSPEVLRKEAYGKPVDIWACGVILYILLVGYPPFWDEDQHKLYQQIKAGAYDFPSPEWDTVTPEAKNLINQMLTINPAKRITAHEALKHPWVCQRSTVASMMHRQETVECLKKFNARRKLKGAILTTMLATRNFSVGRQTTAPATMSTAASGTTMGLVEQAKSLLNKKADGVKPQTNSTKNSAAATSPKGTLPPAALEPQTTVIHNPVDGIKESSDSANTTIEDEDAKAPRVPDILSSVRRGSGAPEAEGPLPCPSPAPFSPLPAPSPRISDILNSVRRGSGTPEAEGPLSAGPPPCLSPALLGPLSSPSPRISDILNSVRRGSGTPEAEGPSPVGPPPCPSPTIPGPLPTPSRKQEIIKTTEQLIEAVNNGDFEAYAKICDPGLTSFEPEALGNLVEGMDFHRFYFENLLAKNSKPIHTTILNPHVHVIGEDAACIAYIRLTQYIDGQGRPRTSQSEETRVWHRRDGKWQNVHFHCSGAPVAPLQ
T37 sequence (P35916 25-1363): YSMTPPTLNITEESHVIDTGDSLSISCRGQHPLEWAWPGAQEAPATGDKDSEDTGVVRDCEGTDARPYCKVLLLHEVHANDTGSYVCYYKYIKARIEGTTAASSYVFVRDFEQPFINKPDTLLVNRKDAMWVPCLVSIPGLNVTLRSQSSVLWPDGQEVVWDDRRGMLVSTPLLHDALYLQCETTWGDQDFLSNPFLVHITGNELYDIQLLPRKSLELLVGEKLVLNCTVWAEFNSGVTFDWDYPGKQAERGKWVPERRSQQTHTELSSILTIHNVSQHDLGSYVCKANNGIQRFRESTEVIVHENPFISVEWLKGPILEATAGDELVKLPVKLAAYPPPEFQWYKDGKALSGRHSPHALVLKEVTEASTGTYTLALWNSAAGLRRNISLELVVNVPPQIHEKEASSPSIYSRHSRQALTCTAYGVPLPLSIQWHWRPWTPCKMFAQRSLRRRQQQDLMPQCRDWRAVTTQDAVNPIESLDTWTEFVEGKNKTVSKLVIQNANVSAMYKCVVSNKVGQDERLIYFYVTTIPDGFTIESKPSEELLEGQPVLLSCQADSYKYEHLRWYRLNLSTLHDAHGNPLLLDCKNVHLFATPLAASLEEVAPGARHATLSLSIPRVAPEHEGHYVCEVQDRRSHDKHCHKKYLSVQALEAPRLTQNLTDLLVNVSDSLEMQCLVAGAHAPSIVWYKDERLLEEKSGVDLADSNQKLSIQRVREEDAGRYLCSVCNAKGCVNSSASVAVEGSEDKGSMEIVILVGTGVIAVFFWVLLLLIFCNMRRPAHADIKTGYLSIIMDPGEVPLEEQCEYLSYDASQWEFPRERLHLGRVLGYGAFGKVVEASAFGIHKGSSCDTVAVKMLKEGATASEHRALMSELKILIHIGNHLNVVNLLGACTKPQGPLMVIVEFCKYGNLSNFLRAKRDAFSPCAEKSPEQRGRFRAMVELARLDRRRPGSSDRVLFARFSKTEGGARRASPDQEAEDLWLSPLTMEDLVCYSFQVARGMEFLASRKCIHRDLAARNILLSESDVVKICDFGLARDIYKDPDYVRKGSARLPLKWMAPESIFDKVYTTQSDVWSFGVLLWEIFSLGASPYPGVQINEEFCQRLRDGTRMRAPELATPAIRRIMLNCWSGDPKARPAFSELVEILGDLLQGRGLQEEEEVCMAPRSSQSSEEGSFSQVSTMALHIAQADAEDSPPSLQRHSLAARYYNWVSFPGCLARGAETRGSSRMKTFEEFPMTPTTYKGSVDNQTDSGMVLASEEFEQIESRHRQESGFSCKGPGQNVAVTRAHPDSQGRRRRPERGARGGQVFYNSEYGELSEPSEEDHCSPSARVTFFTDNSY
T22 sequence (P68400 whole entry): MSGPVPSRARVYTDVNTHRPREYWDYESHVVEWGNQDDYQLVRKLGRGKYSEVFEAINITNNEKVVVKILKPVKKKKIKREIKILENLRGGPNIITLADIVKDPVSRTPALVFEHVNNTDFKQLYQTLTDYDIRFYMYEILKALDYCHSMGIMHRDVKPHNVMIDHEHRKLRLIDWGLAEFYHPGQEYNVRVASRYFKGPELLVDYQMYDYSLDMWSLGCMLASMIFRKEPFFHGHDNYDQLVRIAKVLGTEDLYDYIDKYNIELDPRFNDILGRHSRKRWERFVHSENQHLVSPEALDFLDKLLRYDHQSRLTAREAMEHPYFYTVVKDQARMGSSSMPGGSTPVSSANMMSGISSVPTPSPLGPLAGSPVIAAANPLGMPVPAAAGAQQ
T22 sequence (P67870 whole entry partner): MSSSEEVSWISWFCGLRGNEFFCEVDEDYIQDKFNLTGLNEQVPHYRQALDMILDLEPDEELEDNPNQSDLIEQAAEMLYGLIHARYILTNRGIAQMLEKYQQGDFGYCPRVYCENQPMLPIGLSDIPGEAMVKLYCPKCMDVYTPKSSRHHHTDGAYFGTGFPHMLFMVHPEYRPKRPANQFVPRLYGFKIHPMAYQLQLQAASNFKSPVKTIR
T13 sequence (P14416 1-414 isoform P14416-2): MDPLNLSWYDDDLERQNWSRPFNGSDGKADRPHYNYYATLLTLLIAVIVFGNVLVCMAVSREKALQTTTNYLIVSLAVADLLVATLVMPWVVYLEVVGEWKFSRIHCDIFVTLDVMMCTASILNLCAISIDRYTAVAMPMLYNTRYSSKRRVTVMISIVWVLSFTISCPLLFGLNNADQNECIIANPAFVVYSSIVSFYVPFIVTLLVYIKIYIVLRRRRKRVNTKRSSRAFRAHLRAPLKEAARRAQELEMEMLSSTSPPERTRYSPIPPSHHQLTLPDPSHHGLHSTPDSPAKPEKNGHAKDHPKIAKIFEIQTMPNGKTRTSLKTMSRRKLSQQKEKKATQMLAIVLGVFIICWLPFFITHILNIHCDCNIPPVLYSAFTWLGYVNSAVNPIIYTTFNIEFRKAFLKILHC
T14 sequence (O75676 whole entry): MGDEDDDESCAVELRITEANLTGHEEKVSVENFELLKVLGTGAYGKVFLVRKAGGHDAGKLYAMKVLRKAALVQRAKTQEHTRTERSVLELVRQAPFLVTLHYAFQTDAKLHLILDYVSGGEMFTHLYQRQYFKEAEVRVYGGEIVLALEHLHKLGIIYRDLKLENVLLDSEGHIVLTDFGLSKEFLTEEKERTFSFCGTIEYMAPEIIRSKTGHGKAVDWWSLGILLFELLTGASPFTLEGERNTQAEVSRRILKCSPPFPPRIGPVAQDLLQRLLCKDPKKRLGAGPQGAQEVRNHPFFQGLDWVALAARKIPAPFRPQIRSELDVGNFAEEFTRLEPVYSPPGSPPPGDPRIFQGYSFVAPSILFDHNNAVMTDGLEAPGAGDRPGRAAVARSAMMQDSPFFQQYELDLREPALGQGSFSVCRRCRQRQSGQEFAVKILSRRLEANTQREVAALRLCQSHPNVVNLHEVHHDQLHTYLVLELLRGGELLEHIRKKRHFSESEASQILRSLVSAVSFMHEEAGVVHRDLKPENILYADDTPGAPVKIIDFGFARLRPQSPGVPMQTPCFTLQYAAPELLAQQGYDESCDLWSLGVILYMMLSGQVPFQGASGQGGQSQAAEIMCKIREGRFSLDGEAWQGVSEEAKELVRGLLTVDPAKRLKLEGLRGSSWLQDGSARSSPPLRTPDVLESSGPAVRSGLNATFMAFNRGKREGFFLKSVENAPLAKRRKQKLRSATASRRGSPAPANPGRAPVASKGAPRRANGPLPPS
T36 sequence (Q9UHD2 whole entry): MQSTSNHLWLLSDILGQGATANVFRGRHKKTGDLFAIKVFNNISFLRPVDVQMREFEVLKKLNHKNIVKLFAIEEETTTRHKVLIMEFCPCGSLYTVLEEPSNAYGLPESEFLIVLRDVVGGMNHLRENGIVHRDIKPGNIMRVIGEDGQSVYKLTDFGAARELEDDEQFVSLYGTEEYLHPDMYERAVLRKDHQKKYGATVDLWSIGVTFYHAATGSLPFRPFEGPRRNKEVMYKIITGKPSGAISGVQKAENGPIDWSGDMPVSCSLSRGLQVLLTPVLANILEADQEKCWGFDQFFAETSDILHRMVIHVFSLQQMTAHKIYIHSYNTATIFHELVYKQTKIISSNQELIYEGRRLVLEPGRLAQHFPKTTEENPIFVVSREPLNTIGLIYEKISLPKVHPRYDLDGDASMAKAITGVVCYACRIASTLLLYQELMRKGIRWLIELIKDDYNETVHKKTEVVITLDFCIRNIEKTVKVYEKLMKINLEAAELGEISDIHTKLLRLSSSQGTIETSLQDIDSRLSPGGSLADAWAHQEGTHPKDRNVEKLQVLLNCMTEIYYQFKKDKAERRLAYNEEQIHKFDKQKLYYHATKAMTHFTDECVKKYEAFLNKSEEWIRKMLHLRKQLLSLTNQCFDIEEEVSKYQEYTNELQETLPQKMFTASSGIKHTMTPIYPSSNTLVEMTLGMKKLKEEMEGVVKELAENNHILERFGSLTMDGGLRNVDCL
T12 sequence (P08172 whole entry): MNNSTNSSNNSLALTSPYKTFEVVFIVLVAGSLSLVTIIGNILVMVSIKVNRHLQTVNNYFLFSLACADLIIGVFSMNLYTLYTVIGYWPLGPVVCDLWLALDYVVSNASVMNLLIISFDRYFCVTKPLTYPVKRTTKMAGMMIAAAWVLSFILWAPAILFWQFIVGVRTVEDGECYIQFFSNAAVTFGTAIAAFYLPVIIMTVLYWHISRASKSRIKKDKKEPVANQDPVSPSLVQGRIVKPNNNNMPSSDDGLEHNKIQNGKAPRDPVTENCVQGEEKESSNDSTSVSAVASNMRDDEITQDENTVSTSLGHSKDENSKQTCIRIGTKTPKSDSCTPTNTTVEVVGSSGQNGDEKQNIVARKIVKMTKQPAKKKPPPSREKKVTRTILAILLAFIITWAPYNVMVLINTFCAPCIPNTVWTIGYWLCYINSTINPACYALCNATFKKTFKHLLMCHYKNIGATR

## Cn1cc(-c2ccc(-c3cncc(Cl)c3N3CCC4(CCNC4=O)CC3)cc2)cn1 [Compound 74, 8-(3-Chloro-5-(4-(1-methyl-1H-pyrazol-4-yl)phenyl)pyridin-4-yl)-2,8-diazaspiro[4.5]decan-1-one]
TIE2
  remaining activity at 1 µM: -25%
ARK5
  remaining activity at 1 µM: -2%
RSK3
  remaining activity at 1 µM: -5%
MTOR
  remaining activity at 1 µM: 7%
GRK5
  remaining activity at 1 µM: -5%
JAK3
  remaining activity at 1 µM: 0%
BRSK1
  remaining activity at 1 µM: -25%
SGK
  remaining activity at 1 µM: -4%
SGK2
  remaining activity at 1 µM: -17%
Dopamine transporter (h)
  inhibition at 10 µM: 40%
ALK
  remaining activity at 1 µM: -22%
M2 (h)
  inhibition at 10 µM: 38%
D2S (h)
  inhibition at 10 µM: 5%
MSK2
  remaining activity at 1 µM: -6%
WNK3
  remaining activity at 1 µM: -25%
IR, ACTIVATED
  remaining activity at 1 µM: -4%
SAPK2B
  remaining activity at 1 µM: 0%
DCAMKL2
  remaining activity at 1 µM: 1%
STK33
  remaining activity at 1 µM: 9%
IKKALPHA
  remaining activity at 1 µM: 4%
EGFR
  remaining activity at 1 µM: 10%
CK2
  remaining activity at 1 µM: -7%
MELK
  remaining activity at 1 µM: 32%
GABA (non-selective)
  % Inhibition of Control Specific Binding: 5%
CAMKIIBETA
  remaining activity at 1 µM: 8%
5-HT transporter (h)
  inhibition at 10 µM: 70%
PAK5
  remaining activity at 1 µM: 4%
PAK6
  remaining activity at 1 µM: -2%
PIM-2
  remaining activity at 1 µM: 13%
ITK
  remaining activity at 1 µM: -3%
FYN
  remaining activity at 1 µM: 1%
EPHA5
  remaining activity at 1 µM: 6%
EEF-2K
  remaining activity at 1 µM: 15%
PKCMU
  remaining activity at 1 µM: -1%
MKK7BETA
  remaining activity at 1 µM: 68%
PKD2
  remaining activity at 1 µM: 7%
TBK1
  remaining activity at 1 µM: 4%
FLT4
  remaining activity at 1 µM: -23%
TAK1
  remaining activity at 1 µM: 6%
5-HT1B
  inhibition at 10 µM: -7%
MC4 (h)
  inhibition at 10 µM: 4%
ALK4
  remaining activity at 1 µM: -12%
PRAK
  remaining activity at 1 µM: 13%
β2 (h)
  inhibition at 10 µM: 6%
